The data set is described as follows: GC-MS analysis of volatile components after light exposure. The data set is classed as physicochemical. Conditions: after 5 d of light exposure. Here is the method: Untreated ATVO, the physical mixture (10 mL ATVO, 10 mL distilled water, and 0.3 g MSTC mixed uniformly with a glass rod), and the MSTC-stabilized PE were each placed into flat weighing bottles (40 × 25 mm). The samples were stored in a light-stability chamber with a light intensity of 4500 ± 500 lx and a controlled temperature of 25 ± 0.5 °C. Aliquots were collected after 1, 3, and 5 days of light exposure. The physical mixture and PE groups were centrifuged (10,000 rpm, 10 min) to achieve phase separation prior to analysis. All assays were performed in triplicate, and the obtained samples were maintained at 4 °C until analyzed.Volatile oil retention rate (%) = Vt/V0 × 100%(2) The volatile components of ATVO were determined by gas chromatography-mass spectrometry (GC-MS) according to a previously reported method. Samples from each treatment group were prepared before analysis. Briefly, 100 μL of each volatile oil sample was transferred into a 10 mL volumetric flask. Then, 100 μL of n-docosane internal standard solution (10 mg·mL^−1) was added. The mixture was diluted to volume with n-hexane. […] It was then vortex-mixed and filtered through a 0.22 μm organic membrane filter. The filtrate was used for GC-MS analysis. […] Relative quantification was performed using n-docosane as the internal standard. […]

On to `C=C/C(C)=C/CC=C(C)C` [003779-61-1, (E)-3,7-dimethylocta-1,3,6-triene], for which the “relative content of the component” value is reported as “well retained” (PE group) and “decreased to zero” (free ATVO (O) group implied).

These data come from PMC13415033, “Pickering Emulsion Stabilized by Chitosan-Modified Saigae Tataricae Cornu Particles for Improving the Oxidative Stability and In Vivo Pharmacokinetics of Acorus tatarinowii Schott Volatile Oil” (Pharmaceuticals, 2026).
